Work on `CN(C)C(=O)Cn1nc(-c2ccccc2O)nc1-c1ccccc1O` yielded a melting point of 196 to 197 °C. With `CCCC(=O)c1cccc(NC(=O)C=C(C)Cl)c1` the melting point was 106 °C. In the case of `CC#CCOc1nsc(-c2cccc(F)c2)n1`, the melting point is reported as 68.7 °C. `CCCn1cc2c(C3C(=O)Nc4ccc(Br)cc43)nc(NCCN(C)C)nc2n1` (stereo not given) gave a melting point of 270 to 274 °C. Work on `CC(=O)NCC=Cc1ccc2ncnc(Nc3ccc(Oc4ccc(C)nc4)c(Cl)c3)c2c1` yielded a melting point of 254 to 256 °C. With `CCOc1cc2c(cc1S(=O)(=O)c1ccccc1)[C@@H](N1CCCC1=O)[C@H](O)C(C)(C)O2` (relative stereo) the melting point was 197 to 198 °C. Work on `CCCc1c(OCCCOc2ccc(-c3nnn[nH]3)cc2Cl)ccc(C(C)=O)c1O` yielded a melting point of 214 to 216 °C. For `O=C(O)c1cc(Oc2ccccc2)ccc1O`, the melting point was 126 to 128 °C. `Cc1cc(C)cc(OCC(=O)c2ccc(C(C)C)cc2)c1` gave a melting point of 68 to 69 °C. For `CCCSc1ccc(N)c([N+](=O)[O-])c1`, the melting point was 36.5 to 38 °C. Compound `CSC(=C[N+](=O)[O-])NCCSCc1cc(C)c(CN(C)C)s1` has a melting point of 69 to 71 °C. In the case of `CCCCN1Cc2[nH]c3ccccc3c2C1`, the melting point is reported as 151 to 152 °C. Work on `CCNn1cc(C(=O)O)c(=O)c2cc(F)c(N3CCNCC3)cc21` yielded a melting point of 289 to 291 °C. With `O=Cc1ccc(I)nc1` the melting point was 141 °C. Compound `COc1ccc(NC(=O)c2ccc(F)c(F)c2)cc1NS(=O)(=O)c1cccc(N)c1` has a melting point of 205 to 209 °C. For `COC(=O)c1cccc(Oc2cccc(-c3nn(C)c(=Nc4ccc(Cl)c(Cl)c4)s3)c2)c1`, the melting point was 193 to 196 °C. Work on `CCON=C(CC)C1=C(OC(=O)c2ccc(Cl)cc2)CC(C)(C)CC1=O` yielded a melting point of 60 to 62 °C. With `O=C(OCc1ccccc1)[C@@H](Cc1ccccc1)NS(=O)(=O)c1ccc2ccccc2c1` the melting point was 107 °C. For `N#CCCCCCCCCCCCCC#N`, the melting point was < 40 °C. In the case of `CC(=O)Nc1ncc(/C=C/c2ncc(C(C)(C)C)o2)s1`, the melting point is reported as 275 °C. With `CCOC(=O)[C@H](Cc1ccc(O)cc1)NC(=O)OC(C)(C)C` the melting point was 87 to 88 °C. `O=C1NCCc2cc(F)ccc21` showed a melting point of 107 to 108 °C. Work on `CC(C)(C)OC(=O)NCCC[C@H](NC(=O)OC(C)(C)C)C(=O)NCCCC(c1ccc(F)cc1)c1ccc(F)cc1` yielded a melting point of 54 to 59 °C. With `O=C(NCC1CC(=O)N(Cc2ccccc2)c2ccccc2N1C(=O)CN1C(=O)c2ccccc2C1=O)OCc1ccccc1` (stereo not given) the melting point was 219 to 221 °C. `CCNC(=O)n1nc(Oc2c(Cl)cc(C(F)(F)F)cc2Cl)cc1CC` showed a melting point of 86 to 89 °C. Compound `C[C@](O)(COc1ccc(C#N)cc1)C(=O)Nc1ccc(C#N)c(Cl)c1` has a melting point of 103 to 105 °C. With `COc1ccc(C(=O)Cc2ccccc2)c(Cl)c1Cl` the melting point was 125 to 127 °C. For `C=C1OC(=NOC(C)=O)C(c2ccccc2)C(=O)N1C(C)(C)C(=O)Nc1cc(Cl)cc(Cl)c1` (stereo not given), the melting point was 125 to 127 °C. `COC[C@@H](C)n1cc(Cl)nc(N2CCc3cc(Cl)cc(Cl)c32)c1=O` gave a melting point of 93 to 95 °C. `CCOC(=O)c1cnc2c(C)csc2c1NCc1ccccc1` showed a melting point of 99 to 100 °C. In the case of `COC(=O)C1Cc2c([nH]c3ccccc23)C(c2ccc(Cl)cc2Cl)N1` (stereo not given), the melting point is reported as 128 to 130 °C. `Nc1ncnc2c1nc(O)n2CCc1ccccc1` showed a melting point of 256 to 258 °C. `Cc1c(Cc2cccc(C(F)(F)F)c2)sc2c(-c3cc(F)cc(C(=O)NCCO)c3)cccc12` gave a melting point of 151 to 152 °C. In the case of `CC(C)OC1=NC(=O)N(C(C)C)S(=O)(=O)N1`, the melting point is reported as 164 to 167 °C. For `O=C(O)Cn1c(=O)c(=O)[nH]c2cc(Cl)ccc21`, the melting point was 318 to 319 °C. Compound `O=[N+]([O-])c1ccc(Nc2ccccn2)c(C(F)(F)F)c1` has a melting point of 83 to 84 °C. With `Cn1cc(-c2cnc3[nH]c(=O)n(CC4CCOCC4)c3n2)cn1` the melting point was 224 to 226 °C. `CCCOc1ccc(S(=O)(=O)N2CCN(CC)CC2)cc1C(=O)O` gave a melting point of 143 to 145 °C. `O=c1[nH]c2ccccc2n1CCCN1CCN(C(c2ccccc2)c2ccccc2Cl)CC1` (stereo not given) gave a melting point of 139 °C. Work on `COc1cc(OC)c(F)c(NCc2cnc(SC)nc2NC2CC2)c1F` yielded a melting point of 48 to 50 °C. With `COc1ccc(/C=C/C(=O)c2cccc(O)c2)cc1OC` the melting point was 138 to 139 °C. `NC(=S)C1CCCc2cccnc21` (stereo not given) showed a melting point of 160 °C. `Cc1noc(C(=O)NC(C)(C)C)c1C(N)=O` gave a melting point of 155 to 158 °C. `O=CNCC(=O)c1cccc(Nc2ccc3ccccc3n2)c1` gave a melting point of 194 to 196 °C. `Cc1nc[nH]c1CSCCNC(=O)NCCSCc1[nH]cnc1C` showed a melting point of 225 to 228 °C. Work on `C#CCOc1ccc(/C=C/C(=O)Nc2ccccc2C(=O)O)cc1OC` yielded a melting point of 191 to 193 °C. For `CCCc1c[nH]nc1OCCCc1cn(-c2ccc(C(F)(F)F)cn2)nc1OCC`, the melting point was 121 to 122 °C. In the case of `CC(C)OC(=O)COc1ccc(C(=O)CBr)cc1`, the melting point is reported as 60 to 61 °C. Compound `O=C(Cc1ncc[nH]1)c1ccc2ccccc2c1` has a melting point of 125 to 126 °C. `CC(C)Cc1ccc2c(c1)C(=O)N(c1ccc3c(ccn3C)c1)C2` showed a melting point of 193 to 194 °C. `CCCCCCCOC(=O)Cc1nc(-c2ccc(Cl)cc2)oc1-c1ccco1` gave a melting point of 69 to 70 °C. In the case of `Cc1cc(CN2CCN(c3nc(C)c(C(=O)NCc4cccnc4)s3)C2=O)no1`, the melting point is reported as 185 to 188 °C. `N#CCOc1cc2c(cc1C#Cc1ccccc1)NC(=O)CC(c1cccc(-n3ccnc3)c1)=N2` gave a melting point of 214 °C. In the case of `CC(C)C(C#N)Nc1ccc(C(F)(F)F)cc1Cl` (stereo not given), the melting point is reported as 63.2 to 64.8 °C. Compound `Nc1nc(F)cc(CF)n1` has a melting point of 189 to 190 °C. `COc1cccc(C2Nn3cc(-c4cc(-c5ccc(Cl)cc5Cl)no4)nc3S2)c1` (stereo not given) gave a melting point of 195 to 198 °C. `Oc1ccc2sc(-c3ccc(OCCN4CCCC4)cc3)c(Cc3ccc(OC4CCCCC4N4CCCCC4)cc3)c2c1` (stereo not given) gave a melting point of 103 to 106 °C. Compound `CCCCC1=NC(Cl)(COC)CN1Cc1ccc(C(=O)O)cc1` (stereo not given) has a melting point of 126 to 128 °C. With `CCCc1c2occc(=O)c2cc2c(=O)c(-c3ccc(C(=O)O)cc3)c(C(=O)O)oc12` the melting point was 250 °C. Work on `COc1ccc(C(=O)c2ccc(Cl)nc2)c(OCc2ccccc2)c1` yielded a melting point of 93 to 94 °C. `Cc1c(-c2nnn[nH]2)oc2c(c1=O)CS(=O)(=O)c1ccccc1-2` gave a melting point of 268 to 270 °C. Work on `CCCC1=C(C(=O)OCC)C(C)(c2ccccc2)c2c[nH]nc2N1` (stereo not given) yielded a melting point of 207 °C. `COc1cc(CNc2ccc(C)cc2)cc(OC)c1OC` gave a melting point of 94 to 96 °C. With `CC(C)(C)c1ccc(-c2cc(Oc3ccc4[nH]ccc4c3)ncn2)cc1` the melting point was 143 to 145 °C. Work on `CCC(C)COC(=O)c1ccc(OC(=O)c2ccc(O)cc2)cc1` (stereo not given) yielded a melting point of 90.8 to 92.6 °C. For `N#CNC(=O)[C@H](Cc1ccccc1)NC(=O)[C@@H]1CCC(=O)N1`, the melting point was 163 to 165 °C. `CCOc1nc(=O)n(C(=O)Nc2cccc(Cl)c2)s1` gave a melting point of 141 °C. `C=CCC1(CCNC(=O)C2CCC2)c2cc(OC)ccc2CCC12OCCO2` (stereo not given) gave a melting point of 99 to 101 °C. For `CN1CCCC1COc1ccc(-c2cccc(N)n2)c2ccccc12` (stereo not given), the melting point was 80 to 95 °C. Compound `CCOC(=O)C(Cc1ccc(OCc2ccccc2)cc1)OS(C)(=O)=O` (stereo not given) has a melting point of 81 to 83 °C. In the case of `C=C(C)CCOc1ccc([N+](=O)[O-])cc1Cl`, the melting point is reported as 38 to 39 °C. Compound `COc1ccc(CC(C(=O)Nc2nc3ccccc3o2)c2ccc(S(C)(=O)=O)cc2)cc1` (stereo not given) has a melting point of 102 to 106 °C. `COc1ccccc1C1(O)C(=O)Nc2cc(Cl)c(Cl)cc21` (stereo not given) gave a melting point of 245 to 246 °C. `CCN(C(=O)N(CC)c1ccc2c(c1)C(C)(C)CCC2(C)C)c1ccc(C(=O)O)cc1` showed a melting point of 169 to 172 °C. `CC(C)(O)CCCCc1ccc(C=Cc2ccc(CO)c(CO)c2)cc1` showed a melting point of 102 to 104 °C. `Cc1cccc(-c2sc(N)nc2-c2ccc3c(c2)OCO3)n1` showed a melting point of 170 to 172 °C. `CN1C(C(=O)Nc2ccc(F)cc2)=C(O)c2ccc3ccccc3c2S1(=O)=O` showed a melting point of 284 to 285 °C. Compound `O=C(NC1CCOCC1)c1ccc(-c2cc(-c3c(-c4cccc(Cl)c4)nc4ccccn34)ccn2)cc1` has a melting point of 234 °C. With `CCCCCCCCCCCCCCCCCC(=O)ON1C(C)(C)CC(OC(C)=O)CC1(C)C` the melting point was 55 to 58 °C. For `CCCCCc1ccc(-c2ccc(C(C)O)cc2)cc1` (single isomer, unassigned; (-)), the melting point was 83.8 °C. With `CCOC(=O)c1cnc2c(cnn2-c2ccccc2)c1N(Cc1cccnc1)S(=O)(=O)c1ccc(OC)cc1` the melting point was 89 to 91 °C. With `c1ccc(-c2cc(N3CCNCC3)nc(-c3ccccn3)n2)nc1` the melting point was 159 to 161 °C. `CN(Cc1ccccc1)c1nc(=O)c2cccnc2s1` gave a melting point of 112 to 113 °C. `CCCCOC(=O)CNC(=O)c1ccc2cc(C(=O)O)[nH]c2c1` gave a melting point of 267 to 268 °C. For `CN1C(=O)C(C)(C)N=C(c2ccccc2F)c2cc(N)cc(Cl)c21`, the melting point was 169 to 172 °C. With `CC(C)Oc1cc(-n2c(=O)[nH]c(C(F)(F)F)c(F)c2=O)c(F)cc1Cl` the melting point was 133 to 135 °C. In the case of `CCc1ccc([N+]([O-])=Cc2ccc(C)cc2)cc1`, the melting point is reported as 97 to 99 °C. In the case of `CCNCC1CCN(c2c(F)cc3c(=O)c(C(=O)O)cn(C4CC4)c3c2F)C1` (stereo not given), the melting point is reported as 256 to 258 °C. Work on `O=C(O)COc1cc(O)c2c(c1)NC1(CCCCC1)CC2=O` yielded a melting point of 177 to 178 °C. In the case of `CC(NC(=S)NCC(COC(=O)C(C)(C)C)Cc1ccc(C(C)(C)C)cc1)c1ccc(NS(C)(=O)=O)cc1` (stereo not given), the melting point is reported as 87 °C. Work on `COC(=O)c1cc(C23CC4CC(CC(C4)C2)C3)c(O)cc1O` yielded a melting point of 167 to 169 °C. `CCCc1c(OCc2cccn3c(=O)c(CC(=O)O)cnc23)ccc(C(C)=O)c1O` showed a melting point of 239 to 243 °C. With `CCOc1cc2c(Nc3ccc(Sc4nccn4C)c(Cl)c3)c(C#N)cnc2cc1F` the melting point was 251 to 254 °C. `CCOC(=O)/C=C/c1cc(-c2ncc(C(F)(F)F)cc2Cl)ccc1Cl` gave a melting point of 118 to 120 °C. Compound `COc1cc2c(=O)n(CCOCCO)c3c4cc5c(cc4ncc3c2cc1OC)OCO5` has a melting point of 235 °C. For `CCC(=O)c1cn(C)cc(-c2cccc(C(F)(F)F)c2)c1=O`, the melting point was 136 to 138 °C. In the case of `CCC(=O)N1N=C(c2ccc(N)c(C)c2)c2cc(Cl)ccc2C=C1C`, the melting point is reported as 218 to 221 °C. For `CC(=NOCCOc1ccc(CC2SC(=O)NC2=O)cc1)c1ccc(-c2ccc(C(F)(F)F)cc2)cc1` (stereo not given), the melting point was 165 to 166 °C. `O=C(Cn1ccnc1)c1ccc(CCc2ccccc2)cc1` gave a melting point of 134 to 136 °C. Compound `CC(C(=O)N1CCCC1C(=O)O)N(C(=O)C(NC(=O)c1ccccc1)SC(=O)c1ccccc1)C(C)(C)C` (stereo not given) has a melting point of 97 to 100 °C.

Source: a melting point compilation (Tetko et al.; mined from patent text by program, amines drawn as free bases though some values may be those of a salt)
